Measured values reported in patent US20260097135A1, “MODIFIED ONCOLYTIC HERPES SIMPLEX VIRUS (oHSV) AND METHODS OF USE THEREOF” (The General Hospital Corporation, priority 2022, published 2026).
“Also recorded” adds a separate entry of the source.

Test system: human NK cell line NK-92MI
Test: hIL-12 bioactivity: IFN-γ production by NK-92MI cells (ELISA)
Assay type: cell-based
Method: HIL12 levels were measured with the human p70 Quantikine ELISA kit (R&D Systems, Bio-Techne, Minneapolis, MN). Functional hIL12 was assessed using human NK cell line NK-92MI (ATCC (CRL-2408)) and hIL-12 induced IFN-γ production. Recombinant hIL12 (R-hIL12; R&D Systems) with known functional activity was used as a positive control. NK-92MI cells were seeded in a 48-well plate at 2×10^4 cells/well. hIL12 produced by virus-infected cells 64 hpi or R-hIL12 was added to NK-92MI cell cultures at the indicated concentrations (with or without 10 μg/ml heparin). HIL12-dependent secretion of IFN-γ into the supernatant was quantified after 24 hrs via ELISA (Human IFN-gamma Quantikine ELISA Kits (R&D systems)).

Molecule	effect of heparin on hIL-12-induced IFN-γ (heparin 10 μg/ml)	hIL-12 induced IFN-γ production by NK-92MI cells (hIL-12 from infected Vero supernatants (64 hpi) or recombinant, 24 hrs)
heparin	greatly enhanced the activity of hIL12; also recorded: synergizes with hIL-12 in stimulating hIFNγ production	–
R-hIL12: recombinant hIL12 (R&D Systems) with known functional activity, positive control (protein, UniProt P29459 23-219; P29460 23-328, looked up) Interleukin-12 subunit alpha: RNLPVATPDPGMFPCLHHSQNLLRAVSNMLQKARQTLEFYPCTSEEIDHEDITKDKTSTVEACLPLELTKNESCLNSRETSFITNGSCLASRKTSFMMALCLSSIYEDLKMYQVEFKTMNAKLLMDPKRQIFLDQNMLAVIDELMQALNFNSETVPQKSSLEEPDFYKTKIKLCILLHAFRIRAVTIDRVMSYLNAS Interleukin-12 subunit beta: IWELKKDVYVVELDWYPDAPGEMVVLTCDTPEEDGITWTLDQSSEVLGSGKTLTIQVKEFGDAGQYTCHKGGEVLSHSLLLLHKKEDGIWSTDILKDQKEPKNKTFLRCEAKNYSGRFTCWWLTTISTDLTFSVKSSRGSSDPQGVTCGAATLSAERVRGDNKEYEYSVECQEDSACPAAEESLPIEVMVDAVHKLKYENYTSSFFIRDIIKPDPPKNLQLKPLKNSRQVEVSWEYPDTWSTPHSYFSLTFCVQVQGKSKREKKDRVFTDKTSATVICRKNASISVRAQDRYYSSSWSEWASVPCS	–	dose-dependent manner
